This is an account of results in patent publication US9670227B2, “Thienopyrimidine derivatives, a process for their preparation and pharmaceutical compositions containing them” (LES LABORATOIRES SERVIER, priority 2013, dated 2017).

Molecules are shown by their SMILES.

Assay [1] relates to H929 multiple myeloma tumour line. Briefly: In vitro cytotoxicity, Microculture Tetrazolium Assay. Format: cell-based. The settings on record: Homo sapiens, NCI-H929, 48 h, H929 cells, 48 hours exposure, MTT; read-out: IC50 (μM) MTT H929. On the procedure:
The cytotoxicity studies were carried out on the H929 multiple myeloma tumour line.
The cells are distributed onto microplates and exposed to the test compounds for 48 hours.

The next assay has as its target Mcl-1 protein (UniProtKB primary accession number: Q07820) (Homo sapiens, UniProt Q07820). Briefly: Inhibition of Mcl-1 by fluorescence polarisation, Method 1. Format: binding. Conditions: fluorescence polarisation; Method 1, or Method 2; read-out: IC50 (M) Mcl-1 FP. The method in brief:
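FP readout of relative binding potency. Mcl-1 5 nM final, fluorescein-labelled ligand 1 nM final; buffer 10 mM HEPES, 150 mM NaCl, 0.05% Tween 20, pH 7.4; 11-pt dilution series, 5% DMSO final.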
In general terms: In fluorescence polarisation assays a small probe gives low polarisation when free and higher when bound to something large.

Mcl-1 protein, sequence (Q07820 whole entry): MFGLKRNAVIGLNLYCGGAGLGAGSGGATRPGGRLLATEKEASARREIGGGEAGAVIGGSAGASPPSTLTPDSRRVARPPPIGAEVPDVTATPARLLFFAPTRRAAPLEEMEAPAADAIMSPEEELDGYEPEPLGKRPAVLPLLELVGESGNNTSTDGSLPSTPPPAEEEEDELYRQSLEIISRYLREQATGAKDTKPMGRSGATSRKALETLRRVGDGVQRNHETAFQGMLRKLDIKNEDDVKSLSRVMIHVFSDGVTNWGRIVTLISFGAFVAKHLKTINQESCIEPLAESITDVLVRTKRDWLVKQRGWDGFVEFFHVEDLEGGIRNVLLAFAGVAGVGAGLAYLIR

By IC50 is commonly meant the midpoint of a concentration-inhibition curve. For `COc1ccccc1CC(Oc1ncnc2sc(-c3cccc(OCCN4CCOCC4)c3)c(-c3ccc(OCCN4CCN(C)CC4)c(Cl)c3C)c12)C(=O)O` [Example 588, (2R)-2-[((5Sa)-5-{3-chloro-2-methyl-4-[2-(4-methylpiperazin-1-yl)ethoxy]phenyl}-6-{3-[2-(morpholin-4-yl)ethoxy]phenyl}thieno[2,3-d]pyrimidin-4-yl)oxy]-3-(2-methoxyphenyl)propanoic acid], the IC50 in assay [1] amounted to 0.256 µM; on Mcl-1 protein it was 8e-09 M.
In the same order, the values of `COCCOc1cccc(-c2sc3ncnc(OC(Cc4ccccc4OC)C(=O)O)c3c2-c2ccc(OCCN3CCN(C)CC3)c(Cl)c2C)c1` [Example 589, (2R)-2-[((5Sa)-5-{3-chloro-2-methyl-4-[2-(4-methylpiperazin-1-yl)ethoxy]phenyl}-6-[3-(2-methoxyethoxy)phenyl]thieno[2,3-d]pyrimidin-4-yl)oxy]-3-(2-methoxyphenyl)propanoic acid] are 0.233 µM and 8.7e-09 M.
In the same order, the values of `COCc1cc(-c2sc3ncnc(OC(Cc4ccccc4OCc4ccnc(OC)n4)C(=O)O)c3c2-c2ccc(OCCN3CCN(C)CC3)c(Cl)c2C)ccc1F` [Example 594, (2R)-2-[((5Sa)-5-{3-chloro-2-methyl-4-[2-(4-methylpiperazin-1-yl)ethoxy]phenyl}-6-[4-fluoro-3-(methoxymethyl)phenyl]thieno[2,3-d]pyrimidin-4-yl)oxy]-3-{2-[(2-methoxypyrimidin-4-yl)methoxy]phenyl}propanoic acid] are 0.13 µM and 6.1e-09 M.
In the same order, the values of `COc1nccc(COc2ccccc2CC(Oc2ncnc3sc(-c4ccc(F)c(O)c4)c(-c4ccc(OCCN5CCN(C)CC5)c(Cl)c4C)c23)C(=O)O)n1` [Example 595, (2R)-2-{[(5Sa)-5-{3-chloro-2-methyl-4-[2-(4-methylpiperazin-1-yl)ethoxy]phenyl}-6-(4-fluoro-3-hydroxyphenyl)thieno[2,3-d]pyrimidin-4-yl]oxy}-3-{2-[(2-methoxypyrimidin-4-yl)methoxy]phenyl}propanoic acid] are 0.114 µM and 6.2e-09 M.
As to `COc1nccc(COc2ccccc2CC(Oc2ncnc3sc(-c4ccc(F)c(OCCN5CCOCC5)c4)c(-c4ccc(OCCN5CCN(C)CC5)c(Cl)c4C)c23)C(=O)O)n1` [Example 596, (2R)-2-[((5Sa)-5-{3-chloro-2-methyl-4-[2-(4-methylpiperazin-1-yl)ethoxy]phenyl}-6-{4-fluoro-3-[2-(morpholin-4-yl)ethoxy]phenyl}thieno[2,3-d]pyrimidin-4-yl)oxy]-3-{2-[(2-methoxypyrimidin-4-yl)methoxy]phenyl}propanoic acid], the IC50 in assay [1] was 0.12 µM; at Mcl-1 protein, 2.7e-09 M.
For `COc1nccc(COc2ccccc2CC(Oc2ncnc3sc(-c4ccc(F)c(OCCO)c4)c(-c4ccc(OCCN5CCN(C)CC5)c(Cl)c4C)c23)C(=O)O)n1` [Example 597, (2R)-2-[((5Sa)-5-{3-chloro-2-methyl-4-[2-(4-methylpiperazin-1-yl)ethoxy]phenyl}-6-[4-fluoro-3-(2-hydroxyethoxy)phenyl]thieno[2,3-d]pyrimidin-4-yl)oxy]-3-{2-[(2-methoxypyrimidin-4-yl)methoxy]phenyl}propanoic acid] the same measures were 0.449 µM and 6.2e-09 M.
As to `COCCOc1cc(-c2sc3ncnc(OC(Cc4ccccc4OCc4ccnc(OC)n4)C(=O)O)c3c2-c2ccc(OCCN3CCN(C)CC3)c(Cl)c2C)ccc1F` [Example 598, (2R)-2-[((5Sa)-5-{3-chloro-2-methyl-4-[2-(4-methylpiperazin-1-yl)ethoxy]phenyl}-6-[4-fluoro-3-(2-methoxyethoxy)phenyl]thieno[2,3-d]pyrimidin-4-yl)oxy]-3-{2-[(2-methoxypyrimidin-4-yl)methoxy]phenyl}propanoic acid], the IC50 in assay [1] is 0.097 µM; on Mcl-1 protein it was 7.8e-09 M.
For `CCCCn1nccc1COc1ccccc1CC(Oc1ncnc2sc(-c3ccc(C#N)cc3)c(-c3ccc(OCCN4CCN(C)CC4)c(Cl)c3C)c12)C(=O)O` [Example 600, (2R)-3-{2-[(1-butyl-1H-pyrazol-5-yl)methoxy]phenyl}-2-{[(5Sa)-5-{3-chloro-2-methyl-4-[2-(4-methylpiperazin-1-yl)ethoxy]phenyl}-6-(4-cyanophenyl)thieno[2,3-d]pyrimidin-4-yl]oxy}propanoic acid] the same measures were 0.031 µM and 4.1e-09 M.
For `CCCCn1nccc1COc1ccccc1CC(Oc1ncnc2sc(-c3ccc(CC)cc3)c(-c3ccc(OCCN4CCN(C)CC4)c(Cl)c3C)c12)C(=O)O` [Example 601, (2R)-3-{2-[(1-butyl-1H-pyrazol-5-yl)methoxy]phenyl}-2-{[(5Sa)-5-{3-chloro-2-methyl-4-[2-(4-methylpiperazin-1-yl)ethoxy]phenyl}-6-(4-ethylphenyl)thieno[2,3-d]pyrimidin-4-yl]oxy}propanoic acid] the same measures were 0.133 µM and 1.2e-08 M.
In the case of `CCCCn1nccc1COc1ccccc1CC(Oc1ncnc2sc(-c3ccc(O)cc3)c(-c3ccc(OCCN4CCN(C)CC4)c(Cl)c3C)c12)C(=O)O` [Example 602, (2R)-3-{2-[(1-butyl-1H-pyrazol-5-yl)methoxy]phenyl}-2-{[(5Sa)-5-{3-chloro-2-methyl-4-[2-(4-methylpiperazin-1-yl)ethoxy]phenyl}-6-(4-hydroxyphenyl)thieno[2,3-d]pyrimidin-4-yl]oxy}propanoic acid], the IC50 in assay [1] is 0.156 µM; on Mcl-1 protein, 3.7e-09 M.
For the compound `CCCCn1nccc1COc1ccccc1CC(Oc1ncnc2sc(-c3ccc(OC)cc3)c(-c3ccc(OCCN4CCN(C)CC4)c(Cl)c3C)c12)C(=O)O` [Example 603, (2R)-3-{2-[(1-butyl-1H-pyrazol-5-yl)methoxy]phenyl}-2-{[(5Sa)-5-{3-chloro-2-methyl-4-[2-(4-methylpiperazin-1-yl)ethoxy]phenyl}-6-(4-methoxyphenyl)thieno[2,3-d]pyrimidin-4-yl]oxy}propanoic acid], the IC50 turned out to be 0.036 µM in assay [1] and 5e-09 M at Mcl-1 protein.
In the same order, the values of `CCCCn1nccc1COc1ccccc1CC(Oc1ncnc2sc(-c3ccc(OCC)cc3)c(-c3ccc(OCCN4CCN(C)CC4)c(Cl)c3C)c12)C(=O)O` [Example 604, (2R)-3-{2-[(1-butyl-1H-pyrazol-5-yl)methoxy]phenyl}-2-{[(5Sa)-5-{3-chloro-2-methyl-4-[2-(4-methylpiperazin-1-yl)ethoxy]phenyl}-6-(4-ethoxyphenyl)thieno[2,3-d]pyrimidin-4-yl]oxy}propanoic acid] are 0.064 µM and 5.7e-09 M.
As to `CCCCn1nccc1COc1ccccc1CC(Oc1ncnc2sc(-c3ccc(-c4ccc(Cl)nc4)nc3)c(-c3ccc(OCCN4CCN(C)CC4)c(Cl)c3C)c12)C(=O)O` [Example 605, (2R)-3-{2-[(1-butyl-1H-pyrazol-5-yl)methoxy]phenyl}-2-{[6-(6′-chloro-2,3′-bipyridin-5-yl)-(5Sa)-5-{3-chloro-2-methyl-4-[2-(4-methylpiperazin-1-yl)ethoxy]phenyl}thieno[2,3-d]pyrimidin-4-yl]oxy}propanoic acid], the IC50 in assay [1] worked out at 0.254 µM; at Mcl-1 protein, 8.2e-09 M.
